Experimental data taken from ChEMBL document CHEMBL1201861, “Genomics of Drug Sensitity in Cancer screening data, Wellcome Trust Sanger Institute”.

Each compound was assayed on Panc1005 (assay: cells). Conditions: Homo sapiens.
Type: functional, cell-based
Description: SANGER: Inhibition of human PANC-10-05 cell growth in a cell viability assay.
Work on `NC(=O)Nc1cc(-c2cccc(F)c2)sc1C(=O)N[C@H]1CCCNC1` [AZD-7762] yielded an IC50 greater than 2 µM.

These compounds were tested on OE33 (assay: cells). Conditions: Homo sapiens.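 Further: growth inhibition of human OE33 cells, measured by a cell viability assay.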
Type: functional, cell-based
Description: SANGER: Inhibition of human OE33 cell growth in a cell viability assay.
`NC(=O)Nc1cc(-c2cccc(F)c2)sc1C(=O)N[C@H]1CCCNC1` [AZD-7762] showed an IC50 of 0.391 µM.

The compounds below were run on Huh-7 (assay: cells). Conditions: Homo sapiens.
Type: functional, cell-based
Description: SANGER: Inhibition of human HuH-7 cell growth in a cell viability assay.
Compound `NC(=O)Nc1cc(-c2cccc(F)c2)sc1C(=O)N[C@H]1CCCNC1` [AZD-7762] has an IC50 of 1.4 µM.

Each compound was assayed on KP-4 (assay: cells). Conditions: Homo sapiens.
Type: functional, cell-based
Description: SANGER: Inhibition of human KP-4 cell growth in a cell viability assay.
`NC(=O)Nc1cc(-c2cccc(F)c2)sc1C(=O)N[C@H]1CCCNC1` [AZD-7762] gave an IC50 of 1.46 µM.

The compounds below were run on EFM-19 (assay: cells). Conditions: Homo sapiens.
Type: functional, cell-based
Description: SANGER: Inhibition of human EFM-19 cell growth in a cell viability assay.
Work on `NC(=O)Nc1cc(-c2cccc(F)c2)sc1C(=O)N[C@H]1CCCNC1` [AZD-7762] yielded an IC50 of 1.48 µM.

These compounds were tested on PANC-08-13 (assay: cells). Conditions: Homo sapiens.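 Further: cell growth inhibition, measured with a cell viability assay.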
Type: functional, cell-based
Description: SANGER: Inhibition of human PANC-08-13 cell growth in a cell viability assay.
`NC(=O)Nc1cc(-c2cccc(F)c2)sc1C(=O)N[C@H]1CCCNC1` [AZD-7762] gave an IC50 of 0.661 µM.

The compounds below were run on SK-MEL-28 (assay: cells). Conditions: Homo sapiens.
Type: functional, cell-based
Description: SANGER: Inhibition of human SK-MEL-28 cell growth in a cell viability assay.
`NC(=O)Nc1cc(-c2cccc(F)c2)sc1C(=O)N[C@H]1CCCNC1` [AZD-7762] showed an IC50 greater than 2 µM.

The compounds below were run on 769-P (assay: cells). Conditions: Homo sapiens.
Type: functional, cell-based
Description: SANGER: Inhibition of human 769-P cell growth in a cell viability assay.
`NC(=O)Nc1cc(-c2cccc(F)c2)sc1C(=O)N[C@H]1CCCNC1` [AZD-7762] was tested, and the IC50 was 0.223 µM.

Each compound was assayed on NCI-H441 (assay: cells). Conditions: Homo sapiens.
Type: functional, cell-based
Description: SANGER: Inhibition of human NCI-H441 cell growth in a cell viability assay.
`NC(=O)Nc1cc(-c2cccc(F)c2)sc1C(=O)N[C@H]1CCCNC1` [AZD-7762] was tested, and the IC50 was greater than 2 µM.

The compounds below were run on 647-V (assay: cells). Conditions: Homo sapiens.
Type: functional, cell-based
Description: SANGER: Inhibition of human 647-V cell growth in a cell viability assay.
Work on `NC(=O)Nc1cc(-c2cccc(F)c2)sc1C(=O)N[C@H]1CCCNC1` [AZD-7762] yielded an IC50 of 0.618 µM.

These compounds were tested on G-401 (assay: cells). Conditions: Homo sapiens.
Type: functional, cell-based
Description: SANGER: Inhibition of human G-401 cell growth in a cell viability assay.
Work on `NC(=O)Nc1cc(-c2cccc(F)c2)sc1C(=O)N[C@H]1CCCNC1` [AZD-7762] yielded an IC50 greater than 2 µM.

What follows are compounds tested on NCI-H1623 (assay: cells). Conditions: Homo sapiens.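 Further: cell viability assay used as the read-out for growth inhibition of NCI-H1623 cells.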
Type: functional, cell-based
Description: SANGER: Inhibition of human NCI-H1623 cell growth in a cell viability assay.
For `NC(=O)Nc1cc(-c2cccc(F)c2)sc1C(=O)N[C@H]1CCCNC1` [AZD-7762], the IC50 was greater than 2 µM.

What follows are compounds tested on MHH-ES-1 (assay: cells). Conditions: Homo sapiens.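 Further: cell growth inhibition measured by a cell viability assay.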
Type: functional, cell-based
Description: SANGER: Inhibition of human MHH-ES-1 cell growth in a cell viability assay.
`NC(=O)Nc1cc(-c2cccc(F)c2)sc1C(=O)N[C@H]1CCCNC1` [AZD-7762] showed an IC50 greater than 2 µM.

The compounds below were run on 8305C (assay: cells). Conditions: Homo sapiens.
Type: functional, cell-based
Description: SANGER: Inhibition of human 8305C cell growth in a cell viability assay.
`NC(=O)Nc1cc(-c2cccc(F)c2)sc1C(=O)N[C@H]1CCCNC1` [AZD-7762] gave an IC50 of 0.789 µM.

What follows are compounds tested on BCPAP (assay: cells). Conditions: Homo sapiens.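 Further: growth inhibition of BCPAP cells, read out in a cell viability assay.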
Type: functional, cell-based
Description: SANGER: Inhibition of human BCPAP cell growth in a cell viability assay.
For `NC(=O)Nc1cc(-c2cccc(F)c2)sc1C(=O)N[C@H]1CCCNC1` [AZD-7762], the IC50 was 1.89 µM.

The compounds below were run on SCC-25 (assay: cells). Conditions: Homo sapiens.
Type: functional, cell-based
Description: SANGER: Inhibition of human SCC-25 cell growth in a cell viability assay.
Compound `NC(=O)Nc1cc(-c2cccc(F)c2)sc1C(=O)N[C@H]1CCCNC1` [AZD-7762] has an IC50 greater than 2 µM.

Each compound was assayed on OVCAR-8 (assay: cells). Conditions: Homo sapiens.
Type: functional, cell-based
Description: SANGER: Inhibition of human OVCAR-8 cell growth in a cell viability assay.
`NC(=O)Nc1cc(-c2cccc(F)c2)sc1C(=O)N[C@H]1CCCNC1` [AZD-7762] showed an IC50 of 0.356 µM.

Each compound was assayed on P12-Ichikawa (assay: cells). Conditions: Homo sapiens.
Type: functional, cell-based
In the case of `NC(=O)Nc1cc(-c2cccc(F)c2)sc1C(=O)N[C@H]1CCCNC1` [AZD-7762], the IC50 is reported as 0.0432 µM.

The compounds below were run on MeWo (assay: cells). Conditions: Homo sapiens.
Type: functional, cell-based
Description: SANGER: Inhibition of human Mewo cell growth in a cell viability assay.
Compound `NC(=O)Nc1cc(-c2cccc(F)c2)sc1C(=O)N[C@H]1CCCNC1` [AZD-7762] has an IC50 of 0.304 µM.

The compounds below were run on RO82-W-1 (assay: cells). Conditions: Homo sapiens.
Type: functional, cell-based
Description: SANGER: Inhibition of human RO82-W-1 cell growth in a cell viability assay.
With `NC(=O)Nc1cc(-c2cccc(F)c2)sc1C(=O)N[C@H]1CCCNC1` [AZD-7762] the IC50 was greater than 2 µM.

These compounds were tested on HC-1 (assay: cells). Conditions: Homo sapiens, HC-1.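 Further: growth inhibition of HC-1 cells measured by a cell viability assay.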
Type: functional, cell-based, Homo sapiens
Description: SANGER: Inhibition of human HC-1 cell growth in a cell viability assay.
`NC(=O)Nc1cc(-c2cccc(F)c2)sc1C(=O)N[C@H]1CCCNC1` [AZD-7762] was tested, and the IC50 was 0.521 µM.

Each compound was assayed on RCM-1 (assay: cells). Conditions: Homo sapiens.
Type: functional, cell-based
Description: SANGER: Inhibition of human RCM-1 cell growth in a cell viability assay.
With `NC(=O)Nc1cc(-c2cccc(F)c2)sc1C(=O)N[C@H]1CCCNC1` [AZD-7762] the IC50 was 0.993 µM.

What follows are compounds tested on DK-MG (assay: cells). Conditions: Homo sapiens.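 Further: growth inhibition of DK-MG cells, read out with a cell viability assay.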
Type: functional, cell-based
Description: SANGER: Inhibition of human DK-MG cell growth in a cell viability assay.
For `NC(=O)Nc1cc(-c2cccc(F)c2)sc1C(=O)N[C@H]1CCCNC1` [AZD-7762], the IC50 was greater than 2 µM.

The compounds below were run on NCI-H28 (assay: cells). Conditions: Homo sapiens.
Type: functional, cell-based
Description: SANGER: Inhibition of human NCI-H28 cell growth in a cell viability assay.
In the case of `NC(=O)Nc1cc(-c2cccc(F)c2)sc1C(=O)N[C@H]1CCCNC1` [AZD-7762], the IC50 is reported as 0.297 µM.

The compounds below were run on SAOS-2 (assay: cells). Conditions: Homo sapiens.
Type: functional, cell-based
Description: SANGER: Inhibition of human Saos-2 cell growth in a cell viability assay.
Compound `NC(=O)Nc1cc(-c2cccc(F)c2)sc1C(=O)N[C@H]1CCCNC1` [AZD-7762] has an IC50 of 0.746 µM.

These compounds were tested on WM-115 (assay: cells). Conditions: Homo sapiens.
Type: functional, cell-based
Description: SANGER: Inhibition of human WM-115 cell growth in a cell viability assay.
`NC(=O)Nc1cc(-c2cccc(F)c2)sc1C(=O)N[C@H]1CCCNC1` [AZD-7762] gave an IC50 greater than 2 µM.

The compounds below were run on A-431 (assay: cells). Conditions: Homo sapiens.
Type: functional, cell-based
Description: SANGER: Inhibition of human A431 cell growth in a cell viability assay.
Work on `NC(=O)Nc1cc(-c2cccc(F)c2)sc1C(=O)N[C@H]1CCCNC1` [AZD-7762] yielded an IC50 of 0.925 µM.

Each compound was assayed on HT55 (assay: cells). Conditions: Homo sapiens.
Type: functional, cell-based
Description: SANGER: Inhibition of human HT55 cell growth in a cell viability assay.
With `NC(=O)Nc1cc(-c2cccc(F)c2)sc1C(=O)N[C@H]1CCCNC1` [AZD-7762] the IC50 was 1.61 µM.

The compounds below were run on NCI-H460 (assay: cells). Conditions: Homo sapiens.
Type: functional, cell-based
Description: SANGER: Inhibition of human NCI-H460 cell growth in a cell viability assay.
`NC(=O)Nc1cc(-c2cccc(F)c2)sc1C(=O)N[C@H]1CCCNC1` [AZD-7762] was tested, and the IC50 was 1.53 µM.

The compounds below were run on MIA PaCa-2 (assay: cells). Conditions: Homo sapiens.
Type: functional, cell-based
Description: SANGER: Inhibition of human MIA-PaCa-2 cell growth in a cell viability assay.
For `NC(=O)Nc1cc(-c2cccc(F)c2)sc1C(=O)N[C@H]1CCCNC1` [AZD-7762], the IC50 was 0.375 µM.

The compounds below were run on 5637 (assay: cells). Conditions: Homo sapiens.
Type: functional, cell-based
Description: SANGER: Inhibition of human 5637 cell growth in a cell viability assay.
In the case of `NC(=O)Nc1cc(-c2cccc(F)c2)sc1C(=O)N[C@H]1CCCNC1` [AZD-7762], the IC50 is reported as 0.193 µM.

What follows are compounds tested on MG-63 (assay: cells). Conditions: Homo sapiens.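 Further: growth inhibition of human MG-63 cells, read out with a cell viability assay.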
Type: functional, cell-based
Description: SANGER: Inhibition of human MG-63 cell growth in a cell viability assay.
`NC(=O)Nc1cc(-c2cccc(F)c2)sc1C(=O)N[C@H]1CCCNC1` [AZD-7762] gave an IC50 greater than 2 µM.

These compounds were tested on EW-22 (assay: cells). Conditions: Homo sapiens.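 Further: growth inhibition of the EW-22 cell line, measured with a cell viability readout.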
Type: functional, cell-based
Description: SANGER: Inhibition of human EW-22 cell growth in a cell viability assay.
With `NC(=O)Nc1cc(-c2cccc(F)c2)sc1C(=O)N[C@H]1CCCNC1` [AZD-7762] the IC50 was 0.584 µM.

What follows are compounds tested on MKN-28 (assay: cells). Conditions: Homo sapiens.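 Further: cell viability assay read-out, IC50 reflects suppression of growth of human MKN-28 cells.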
Type: functional, cell-based
Description: SANGER: Inhibition of human MKN28 cell growth in a cell viability assay.
For `NC(=O)Nc1cc(-c2cccc(F)c2)sc1C(=O)N[C@H]1CCCNC1` [AZD-7762], the IC50 was greater than 2 µM.

The compounds below were run on 23132-87 (assay: cells). Conditions: Homo sapiens.
Type: functional, cell-based
Description: SANGER: Inhibition of human 23132-87 cell growth in a cell viability assay.
In the case of `NC(=O)Nc1cc(-c2cccc(F)c2)sc1C(=O)N[C@H]1CCCNC1` [AZD-7762], the IC50 is reported as 0.683 µM.

What follows are compounds tested on BHT-101 (assay: cells). Conditions: Homo sapiens.
Type: functional, cell-based
Description: SANGER: Inhibition of human BHT-101 cell growth in a cell viability assay.
`NC(=O)Nc1cc(-c2cccc(F)c2)sc1C(=O)N[C@H]1CCCNC1` [AZD-7762] gave an IC50 of 1.15 µM.

Each compound was assayed on SK-N-AS (assay: cells). Conditions: Homo sapiens.
Type: functional, cell-based
Description: SANGER: Inhibition of human SK-N-AS cell growth in a cell viability assay.
With `NC(=O)Nc1cc(-c2cccc(F)c2)sc1C(=O)N[C@H]1CCCNC1` [AZD-7762] the IC50 was 0.188 µM.

What follows are compounds tested on U2OS (assay: cells). Conditions: Homo sapiens.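 Further: growth inhibition of human U-2-OS cells, determined with a cell viability assay.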
Type: functional, cell-based, U-2-OS
Description: SANGER: Inhibition of human U-2-OS cell growth in a cell viability assay.
For `NC(=O)Nc1cc(-c2cccc(F)c2)sc1C(=O)N[C@H]1CCCNC1` [AZD-7762], the IC50 was 0.158 µM.

Each compound was assayed on NCI-H2347 (assay: cells). Conditions: Homo sapiens.
Type: functional, cell-based
Description: SANGER: Inhibition of human NCI-H2347 cell growth in a cell viability assay.
Work on `NC(=O)Nc1cc(-c2cccc(F)c2)sc1C(=O)N[C@H]1CCCNC1` [AZD-7762] yielded an IC50 of 1.24 µM.

What follows are compounds tested on UMC-11 (assay: cells). Conditions: Homo sapiens.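 Further: growth inhibition of UMC-11 cells, read out with a cell viability assay.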
Type: functional, cell-based
Description: SANGER: Inhibition of human UMC-11 cell growth in a cell viability assay.
Compound `NC(=O)Nc1cc(-c2cccc(F)c2)sc1C(=O)N[C@H]1CCCNC1` [AZD-7762] has an IC50 of 1.77 µM.

The compounds below were run on HSC-3 (assay: cells). Conditions: Homo sapiens.
Type: functional, cell-based
Description: SANGER: Inhibition of human HSC-3 cell growth in a cell viability assay.
`NC(=O)Nc1cc(-c2cccc(F)c2)sc1C(=O)N[C@H]1CCCNC1` [AZD-7762] gave an IC50 of 0.486 µM.

The compounds below were run on EGI-1 (assay: cells). Conditions: Homo sapiens.
Type: functional, cell-based
Description: SANGER: Inhibition of human EGI-1 cell growth in a cell viability assay.
With `NC(=O)Nc1cc(-c2cccc(F)c2)sc1C(=O)N[C@H]1CCCNC1` [AZD-7762] the IC50 was 1.8 µM.

Each compound was assayed on SF-295 (assay: cells). Conditions: Homo sapiens.
Type: functional, cell-based
Description: SANGER: Inhibition of human SF295 cell growth in a cell viability assay.
With `NC(=O)Nc1cc(-c2cccc(F)c2)sc1C(=O)N[C@H]1CCCNC1` [AZD-7762] the IC50 was 0.298 µM.

What follows are compounds tested on SW948 (assay: cells). Conditions: Homo sapiens.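 Further: growth inhibition of SW948 cells, read out with a cell viability assay.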
Type: functional, cell-based
Description: SANGER: Inhibition of human SW948 cell growth in a cell viability assay.
Compound `NC(=O)Nc1cc(-c2cccc(F)c2)sc1C(=O)N[C@H]1CCCNC1` [AZD-7762] has an IC50 greater than 2 µM.

These compounds were tested on ChaGo-K-1 (assay: cells). Conditions: Homo sapiens.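 Further: growth inhibition of ChaGo-K-1 cells, read out with a cell viability assay.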
Type: functional, cell-based
Description: SANGER: Inhibition of human ChaGo-K-1 cell growth in a cell viability assay.
For `NC(=O)Nc1cc(-c2cccc(F)c2)sc1C(=O)N[C@H]1CCCNC1` [AZD-7762], the IC50 was 0.325 µM.

Each compound was assayed on DMS-79 (assay: cells). Conditions: Homo sapiens, DMS-79.
Type: functional, cell-based, Homo sapiens
Description: SANGER: Inhibition of human DMS-79 cell growth in a cell viability assay.
`NC(=O)Nc1cc(-c2cccc(F)c2)sc1C(=O)N[C@H]1CCCNC1` [AZD-7762] gave an IC50 greater than 2 µM.

These compounds were tested on MFH-ino (assay: cells). Conditions: Homo sapiens, MFH-ino.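 Further: growth inhibition of human MFH-ino cells, read out by a cell viability assay.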
Type: functional, cell-based, Homo sapiens
Description: SANGER: Inhibition of human MFH-ino cell growth in a cell viability assay.
`NC(=O)Nc1cc(-c2cccc(F)c2)sc1C(=O)N[C@H]1CCCNC1` [AZD-7762] gave an IC50 greater than 2 µM.

The compounds below were run on SK-MEL-30 (assay: cells). Conditions: Homo sapiens.
Type: functional, cell-based
Description: SANGER: Inhibition of human SK-MEL-30 cell growth in a cell viability assay.
Work on `NC(=O)Nc1cc(-c2cccc(F)c2)sc1C(=O)N[C@H]1CCCNC1` [AZD-7762] yielded an IC50 greater than 2 µM.

The compounds below were run on CAL-72 (assay: cells). Conditions: Homo sapiens.
Type: functional, cell-based
Description: SANGER: Inhibition of human CAL-72 cell growth in a cell viability assay.
`NC(=O)Nc1cc(-c2cccc(F)c2)sc1C(=O)N[C@H]1CCCNC1` [AZD-7762] was tested, and the IC50 was greater than 2 µM.

What follows are compounds tested on HPAF-II (assay: cells). Conditions: Homo sapiens.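 Further: growth inhibition of HPAF-II cells, read out with a cell viability assay.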
Type: functional, cell-based
Description: SANGER: Inhibition of human HPAF-II cell growth in a cell viability assay.
With `NC(=O)Nc1cc(-c2cccc(F)c2)sc1C(=O)N[C@H]1CCCNC1` [AZD-7762] the IC50 was 0.97 µM.
